Measurements as given in PubChem BioAssay AID1259407 (Chemical Carcinogenesis Research Information System (CCRIS), 2018).
The source made the active and inactive calls. The rule behind the calls is not given here.

System: CCRIS mutagenicity, Ames/micronucleus/aberration tests
Experiment: CCRIS mutagenicity studies
[1] = Test System: AMES SALMONELLA TYPHIMURIUM, Strain/Indicator: TA98, Metabolic Activation: NONE, Method: STANDARD PLATE
[2] = Test System: AMES SALMONELLA TYPHIMURIUM, Strain/Indicator: TA100, Metabolic Activation: NONE, Method: STANDARD PLATE
[3] = Test System: AMES SALMONELLA TYPHIMURIUM, Strain/Indicator: TA98, Metabolic Activation: NONE, Method: PREINCUBATION
[4] = Test System: AMES SALMONELLA TYPHIMURIUM, Strain/Indicator: TA100, Metabolic Activation: NONE, Method: PREINCUBATION
[5] = Test System: AMES SALMONELLA TYPHIMURIUM, Strain/Indicator: TA98, Metabolic Activation: RAT, LIVER, S-9, AROCLOR 1254, Method: STANDARD PLATE
[6] = Test System: AMES SALMONELLA TYPHIMURIUM, Strain/Indicator: TA100, Metabolic Activation: RAT, LIVER, S-9, AROCLOR 1254, Method: STANDARD PLATE
[7] = Test System: E.COLI, Strain/Indicator: WP2 UVRA, Metabolic Activation: NONE, Method: PREINCUBATION

Measured: mutagenic call

O=[N+]([O-])c1cccc2c1c([N+](=O)[O-])cc1ccccc12
active: Test System: AMES SALMONELLA TYPHIMURIUM, Strain/Indicator: TA98(1,8-DNP6), Metabolic Activation: NONE, Method: STANDARD PLATE active; positive | Test System: AMES SALMONELLA TYPHIMURIUM, Strain/Indicator: TA98(NR), Metabolic Activation: NONE, Method: STANDARD PLATE active; positive | [1] active; positive | [2] active; positive | Test System: AMES SALMONELLA TYPHIMURIUM, Strain/Indicator: YG1021, Metabolic Activation: NONE, Method: STANDARD PLATE active; positive | Test System: AMES SALMONELLA TYPHIMURIUM, Strain/Indicator: YG1024, Metabolic Activation: NONE, Method: STANDARD PLATE active; positive | Test System: AMES SALMONELLA TYPHIMURIUM, Strain/Indicator: YG1026, Metabolic Activation: NONE, Method: STANDARD PLATE active; positive | Test System: AMES SALMONELLA TYPHIMURIUM, Strain/Indicator: YG1029, Metabolic Activation: NONE, Method: STANDARD PLATE active; positive

CCC(=O)OCc1cccc([N+](=O)[O-])c1
inactive: [3] inactive; negative | [4] inactive; negative | Test System: AMES SALMONELLA TYPHIMURIUM, Strain/Indicator: TA100, Metabolic Activation: RAT, LIVER, S-9, AROCLOR 1254, Method: PREINCUBATION inactive; negative

CC(=O)c1ccc(Cl)c(Cl)c1Cl
inactive: [1] inactive; negative | [5] inactive; negative | [2] inactive; negative | Test System: MOUSE LYMPHOMA, Strain/Indicator: L5178Y (TK+/TK-), Metabolic Activation: NONE, Method: SUSPENSION/PLATE inactive; negative. reevaluation of results: inconclusive | Test System: MOUSE LYMPHOMA, Strain/Indicator: L5178Y (TK+/TK-), Metabolic Activation: RAT, LIVER, S-9, AROCLOR 1254, Method: SUSPENSION/PLATE inactive; negative. reevaluation of results: negative
active: Test System: AMES SALMONELLA TYPHIMURIUM, Strain/Indicator: TA98, Metabolic Activation: HAMSTER, LIVER, S-9, AROCLOR 1254, Method: STANDARD PLATE active; positive | Test System: AMES SALMONELLA TYPHIMURIUM, Strain/Indicator: TA100, Metabolic Activation: HAMSTER, LIVER, S-9, AROCLOR 1254, Method: STANDARD PLATE active; positive | [6] active; positive

CO[C@H](C(=O)[C@@H](O)[C@@H](C)O)[C@@H]1Cc2cc3cc(O[C@H]4C[C@@H](O[C@H]5C[C@@H](O)[C@H](O)[C@@H](C)O5)[C@H](O)[C@@H](C)O4)c(C)c(O)c3c(O)c2C(=O)[C@H]1O[C@H]1C[C@@H](O[C@H]2C[C@@H](O[C@H]3C[C@](C)(O)[C@H](O)[C@@H](C)O3)[C@@H](O)[C@@H](C)O2)[C@H](O)[C@@H](C)O1
active: Test System: CHINESE HAMSTER OVARY, Strain/Indicator: CHO (HGPRT)/6-THIOGUANINE, Metabolic Activation: NONE, Method: PREINCUBATION active; positive

Clc1cccnc1
active: Test System: MOUSE LYMPHOMA, Strain/Indicator: L5178Y (TK+/TK-), Metabolic Activation: NONE active; positive | Test System: MOUSE LYMPHOMA, Strain/Indicator: L5178Y (TK+/TK-), Metabolic Activation: RAT, LIVER, S-9, AROCLOR 1254 active; positive
inactive: Test System: AMES SALMONELLA TYPHIMURIUM, Strain/Indicator: TA97, Metabolic Activation: NONE, Method: STANDARD PLATE inactive; negative | Test System: AMES SALMONELLA TYPHIMURIUM, Strain/Indicator: TA97, Metabolic Activation: RAT, LIVER, S-9, AROCLOR 1254, Method: STANDARD PLATE inactive; negative | [1] inactive; negative | [5] inactive; negative | [2] inactive; negative | [6] inactive; negative | Test System: AMES SALMONELLA TYPHIMURIUM, Strain/Indicator: TA102, Metabolic Activation: NONE, Method: STANDARD PLATE inactive; negative | Test System: AMES SALMONELLA TYPHIMURIUM, Strain/Indicator: TA102, Metabolic Activation: RAT, LIVER, S-9, AROCLOR 1254, Method: STANDARD PLATE inactive; negative

CCN(CC)c1ccc(/C=C/C2=[N+](C)c3ccccc3C2(C)C)cc1
inactive: Test System: Ames Salmonella typhimurium, Strain/Indicator: TA98, Metabolic Activation: None, Method: Preincubation inactive; negative | Test System: Ames Salmonella typhimurium, Strain/Indicator: TA98, Metabolic Activation: Rat, Liver, S-9, Aroclor 1254, Method: Preincubation inactive; negative | Test System: Ames Salmonella typhimurium, Strain/Indicator: TA100, Metabolic Activation: None, Method: Preincubation inactive; negative | Test System: Ames Salmonella typhimurium, Strain/Indicator: TA100, Metabolic Activation: Rat, Liver, S-9, Aroclor 1254, Method: Preincubation inactive; negative | Test System: Ames Salmonella typhimurium, Strain/Indicator: TA102, Metabolic Activation: None, Method: Preincubation inactive; negative | Test System: Ames Salmonella typhimurium, Strain/Indicator: TA102, Metabolic Activation: Rat, Liver, S-9, Aroclor 1254, Method: Preincubation inactive; negative | Test System: Ames Salmonella typhimurium, Strain/Indicator: TA1535, Metabolic Activation: None, Method: Preincubation inactive; negative | Test System: Ames Salmonella typhimurium, Strain/Indicator: TA1535, Metabolic Activation: Rat, Liver, S-9, Aroclor 1254, Method: Preincubation inactive; negative

Cc1ccc(C(=O)Cl)cc1
active: [4] active; positive | Test System: AMES SALMONELLA TYPHIMURIUM, Strain/Indicator: TA100, Metabolic Activation: RAT LIVER S-9, PCB, Method: PREINCUBATION active; positive | Test System: AMES SALMONELLA TYPHIMURIUM, Strain/Indicator: TA104, Metabolic Activation: NONE, Method: PREINCUBATION active; positive | Test System: AMES SALMONELLA TYPHIMURIUM, Strain/Indicator: TA104, Metabolic Activation: RAT LIVER S-9, PCB, Method: PREINCUBATION active; positive | [7] active; positive | Test System: E.COLI, Strain/Indicator: WP2 UVRA, Metabolic Activation: RAT LIVER S-9, PCB, Method: PREINCUBATION active; positive
inactive: [3] inactive; negative | Test System: AMES SALMONELLA TYPHIMURIUM, Strain/Indicator: TA98, Metabolic Activation: RAT LIVER S-9, PCB, Method: PREINCUBATION inactive; negative

CN(Cc1ccc(C(=O)O)cc1)N=O
inactive: Test System: AMES SALMONELLA TYPHIMURIUM, Strain/Indicator: TA1535, Metabolic Activation: HAMSTER, LIVER, S-9, AROCLOR 1254, Method: STANDARD PLATE inactive; negative | Test System: AMES SALMONELLA TYPHIMURIUM, Strain/Indicator: TA1535, Metabolic Activation: NONE, Method: STANDARD PLATE inactive; negative

CCCCCN(CCCOC)C(=O)C(CCC(=O)O)NC(=O)c1ccc(Cl)c(Cl)c1 (stereo not drawn)
inactive: [3] inactive; negative | Test System: AMES SALMONELLA TYPHIMURIUM, Strain/Indicator: TA98, Metabolic Activation: RAT LIVER S-9, PHENOBARBITAL AND 5,6-BENZOFLAVONE, Method: PREINCUBATION inactive; negative | [4] inactive; negative | Test System: AMES SALMONELLA TYPHIMURIUM, Strain/Indicator: TA100, Metabolic Activation: RAT LIVER S-9, PHENOBARBITAL AND 5,6-BENZOFLAVONE, Method: PREINCUBATION inactive; negative | Test System: AMES SALMONELLA TYPHIMURIUM, Strain/Indicator: TA1535, Metabolic Activation: NONE, Method: PREINCUBATION inactive; negative | Test System: AMES SALMONELLA TYPHIMURIUM, Strain/Indicator: TA1535, Metabolic Activation: RAT LIVER S-9, PHENOBARBITAL AND 5,6-BENZOFLAVONE, Method: PREINCUBATION inactive; negative | Test System: AMES SALMONELLA TYPHIMURIUM, Strain/Indicator: TA1537, Metabolic Activation: NONE, Method: PREINCUBATION inactive; negative | Test System: AMES SALMONELLA TYPHIMURIUM, Strain/Indicator: TA1537, Metabolic Activation: RAT LIVER S-9, PHENOBARBITAL AND 5,6-BENZOFLAVONE, Method: PREINCUBATION inactive; negative | [7] inactive; negative | Test System: E.COLI, Strain/Indicator: WP2 UVRA, Metabolic Activation: RAT LIVER S-9, PHENOBARBITAL AND 5,6-BENZOFLAVONE, Method: PREINCUBATION inactive; negative
